± gives the standard error.
Columns and labels:
[1] = test system: 621-102 (TSC2-deficient); experiment: relative viability vs DMSO; higher = less cytotoxic; settings: serum: 10% FBS, 72 h
[2] = test system: 621-103 (TSC2-rescued); experiment: as above; settings: serum: 10% FBS, 72 h
[3] = test system: 621-102 (TSC2-deficient); experiment: relative viability vs DMSO (fraction); higher = less cytotoxic; settings: serum: 0.1% FBS, 72 h
[4] = test system: UMB1949 (TSC2-deficient); experiment: as above; settings: serum: 0.1% FBS, 72 h;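 note: renal angiomyolipoma cell lines screened in 384-well plates, viability normalized per plate to DMSO-treated cells, each plate carrying 50 nM rapamycin and 1 µM staurosporine controls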

Row | SMILES | relative viability ([1]; 0.0001 µM) [%] | relative viability ([1]; 0.001 µM) [%] | relative viability ([1]; 0.01 µM) [%] | relative viability ([1]; 0.1 µM) [%] | relative viability ([1]; 1 µM) [%] | relative viability ([1]; 10 µM) [%] | relative viability ([2]; 0.0001 µM) [%] | relative viability ([2]; 0.001 µM) [%] | relative viability ([2]; 0.01 µM) [%] | relative viability ([2]; 0.1 µM) [%] | relative viability ([2]; 1 µM) [%] | relative viability ([2]; 10 µM) [%] | relative viability ([3]; 0.0128 nM) | relative viability ([3]; 0.064 nM) | relative viability ([3]; 0.32 nM) | relative viability ([3]; 1.6 nM) | relative viability ([3]; 8 nM) | relative viability ([3]; 40 nM) | relative viability ([3]; 200 nM) | relative viability ([3]; 1000 nM) | relative viability ([3]; 5000 nM) | relative viability ([4]; 0.0128 nM) | relative viability ([4]; 0.064 nM) | relative viability ([4]; 0.32 nM) | relative viability ([4]; 1.6 nM) | relative viability ([4]; 8 nM) | relative viability ([4]; 40 nM) | relative viability ([4]; 200 nM) | relative viability ([4]; 1000 nM) | relative viability ([4]; 5000 nM)
1 | O=C(Nc1c[nH]nc1-c1nc2ccc(CN3CCOCC3)cc2[nH]1)NC1CC1 [AT9283] | 94.6 ± 1.6 | 103.4 ± 0.37 | 106 ± 1.6 | 85.8 ± 4.9 | 53.12 ± 0.43 | 15.2 ± 1.2 | 73 ± 1.1 | 89.4 ± 2.2 | 81.5 ± 2.2 | 71.4 ± 2.8 | 31.5 ± 3.9 | 14.6 ± 0.54 | 1.09 | 0.98 | 0.952 | 0.945 | 0.718 | 0.031 | 0.0179 | 0.00825 | 0.00249 | 1.11 | 1.02 | 0.973 | 0.996 | 0.963 | 0.0359 | 0.0512 | 0.00329 | 0.00115
2 | c1ccc2c(-c3cnn4cc(-c5ccc(N6CCNCC6)cc5)cnc34)ccnc2c1 | 92.1 ± 4.3 | 95.1 ± 3.5 | 92.2 ± 3.1 | 91.6 ± 2.6 | 71.9 ± 2.9 | 0.885 ± 0.12 | 90.6 ± 2.2 | 104 ± 0.35 | 93.2 ± 1.9 | 88 ± 1.8 | 62.5 ± 2.2 | 0.919 ± 0.12 | 0.953 | 0.778 | 0.956 | 0.795 | 0.719 | 0.83 | 0.534 | 0.0661 | 0.0132 | 1.1 | 1.14 | 1.15 | 1.08 | 1.07 | 1.1 | 0.943 | 0.00737 | 0.0056
3 | CC(C)C[C@H](NC(=O)CNC(=O)c1cc(Cl)ccc1Cl)B(O)O [MLN2238] | 113.5 ± 0.41 | 107.81 ± 0.071 | 109 ± 2.2 | 33.7 ± 7.2 | 4.42 ± 0.32 | 1.79 ± 0.047 | 100.04 ± 0.065 | 102.4 ± 0.21 | 103 ± 0.3 | 6.24 ± 0.3 | 1.63 ± 0.11 | 0.879 ± 0.059 | 1.04 | 1.1 | 0.991 | 1.15 | 0.999 | 0.243 | 0.0069 | 0.000706 | 0.00111 | 0.999 | 1.11 | 1.04 | 1.06 | 0.886 | 0.00829 | 0.00329 | 0.000634 | 0.000752
4 | C=C1C[C@@H]2[C@H](CC[C@]3(C)C(=O)CC[C@@H]23)[C@@]2(C)C=CC(=O)C=C12 [Exemestane] | 130 ± 2.1 | 122 ± 5.8 | 119 ± 1.2 | 114 ± 3.2 | 113 ± 5.9 | 105 ± 3.4 | 100.1 ± 0.24 | 101 ± 2.2 | 104 ± 1.6 | 100 ± 1.2 | 97.5 ± 1.4 | 92.3 ± 2.7 | 1.16 | 1.08 | 1.02 | 0.948 | 1.06 | 1.11 | 1.12 | 0.94 | 0.891 | 0.936 | 0.98 | 0.996 | 1.01 | 1.08 | 1.02 | 0.927 | 0.859 | 0.773
5 | COc1cc(Nc2ncc3c(n2)-c2ccc(Cl)cc2C(c2c(F)cccc2OC)=NC3)ccc1C(=O)O [MLN8237] | 102 ± 2.6 | 87.64 ± 0.83 | 95.68 ± 0.57 | 87.6 ± 0.9 | 74.6 ± 5.1 | 69.9 ± 2.5 | 103 ± 2.5 | 103.9 ± 0.17 | 98.7 ± 2.3 | 93.8 ± 1 | 91.1 ± 1.4 | 74.62 ± 0.32 | 0.864 | 0.862 | 0.767 | 0.248 | 0.118 | 0.0792 | 0.0576 | 0.0449 | 0.0354 | 0.99 | 0.824 | 0.525 | 0.215 | 0.146 | 0.0466 | 0.0216 | 0.0132 | 0.0159
6 | Cn1cc(-c2ccc3nnc(Sc4ccc5ncccc5c4)n3n2)cn1 [SGX-523] | 104 ± 1.6 | 94.8 ± 6.4 | 103 ± 2.1 | 98.3 ± 4.6 | 103.8 ± 0.28 | 97.5 ± 4.1 | 102 ± 1.5 | 96.42 ± 0.71 | 105 ± 2.4 | 102.4 ± 0.49 | 102.2 ± 0.92 | 97.9 ± 1.9 | 1.13 | 1.07 | 0.971 | 1.13 | 1.06 | 0.984 | 1.01 | 0.991 | 0.776 | 1.09 | 1.05 | 1.17 | 1.23 | 1.03 | 1.11 | 1.19 | 1.04 | 0.718
7 | CC(C)C[C@H](NC(=O)[C@H](Cc1ccccc1)NC(=O)c1cnccn1)B(O)O [Bortezomib] | 110 ± 1.3 | 102 ± 2.8 | 5.8 ± 0.15 | 3.06 ± 0.034 | 2.21 ± 0.16 | 1.87 ± 0.13 | 97.4 ± 1.6 | 90 ± 4.2 | 2.332 ± 0.012 | 1.43 ± 0.049 | 1.14 ± 0.0052 | 1.03 ± 0.066 | 1.07 | 1.03 | 0.903 | 0.16 | 0.0107 | 0.00306 | 0.00178 | 0.000877 | 0.000659 | 1.02 | 0.99 | 1.02 | 0.62 | 0.0154 | 0.00739 | 0.0026 | 0.000806 | 0.000906
8 | COc1ccc(S(=O)(=O)N(C(C)=O)c2ccccc2/C=C/c2cc[n+]([O-])cc2)cc1 [HMN-214] | 112 ± 4 | 110 ± 1.5 | 96.8 ± 5.4 | 92.7 ± 1.4 | 40.4 ± 1.6 | 37 ± 2.7 | 98.78 ± 0.21 | 99.62 ± 0.55 | 100.9 ± 0.31 | 97.91 ± 0.21 | 45.5 ± 1.1 | 39.5 ± 0.96 | 1.16 | 1.09 | 1.35 | 1.08 | 1.01 | 1.02 | 0.0913 | 0.0251 | 0.03 | 1.14 | 1.08 | 1.09 | 1.17 | 1.09 | 0.985 | 0.0414 | 0.0021 | 0.00207
9 | c1cncc(CN2CCC(n3ncc4c(N5CCOCC5)nc(-c5ccc6[nH]ccc6c5)nc43)CC2)c1 [WAY-600] | 89.809 ± 0.075 | 104 ± 2.2 | 99.7 ± 2.1 | 100 ± 1.8 | 82.5 ± 1 | 2.21 ± 0.054 | 99.7 ± 2.6 | 97.8 ± 4.8 | 103 ± 3.9 | 98.1 ± 1.8 | 54.5 ± 2.2 | 7.78 ± 0.25 | 1.07 | 1.25 | 1.04 | 1.18 | 1.21 | 1.19 | 0.798 | 0.345 | 0.00768 | 0.882 | 0.972 | 1.04 | 0.972 | 1.02 | 0.933 | 0.892 | 0.354 | 0.00636
10 | CO[C@H]1C[C@@H]2CC[C@@H](C)[C@@](O)(O2)C(=O)C(=O)N2CCCC[C@H]2C(=O)O[C@H]([C@H](C)C[C@@H]2CC[C@@H](OP(C)(C)=O)[C@H](OC)C2)CC(=O)[C@H](C)/C=C(\C)[C@@H](O)[C@@H](OC)C(=O)[C@H](C)C[C@H](C)/C=C/C=C/C=C/1C [Deforolimus(MK-8669)] | 47.2 ± 1.4 | 56.5 ± 2.7 | 56.6 ± 1.4 | 51.2 ± 2 | 47.9 ± 3 | 48.8 ± 5.1 | 64.9 ± 4.2 | 64.215 ± 0.057 | 68.4 ± 2.7 | 69.1 ± 1.9 | 64.44 ± 0.59 | 67.4 ± 1.6 | 0.609 | 0.552 | 0.523 | 0.466 | 0.466 | 0.493 | 0.373 | 0.281 | 0.284 | 0.988 | 0.964 | 0.973 | 0.932 | 0.899 | 0.802 | 0.693 | 0.381 | 0.459
11 | CC(C)C[C@@H](C(=O)N[C@H](C(=O)OC1CCCC1)c1ccccc1)[C@H](O)C(=O)NO [CHR-2797] | 112 ± 1.6 | 116 ± 2.4 | 114.53 ± 0.03 | 102 ± 1.6 | 89.8 ± 1.5 | 82 ± 2.1 | 103 ± 2.1 | 105.3 ± 0.65 | 115 ± 1.4 | 111 ± 7.5 | 104.4 ± 0.14 | 89.6 ± 2.7 | 0.86 | 0.866 | 0.628 | 0.884 | 0.614 | 0.512 | 0.414 | 0.345 | 0.144 | 1.06 | 0.998 | 0.978 | 1.02 | 0.982 | 0.804 | 0.875 | 0.595 | 0.0151
12 | CC(C)(C)c1cnc(CSc2cnc(NC(=O)C3CCNCC3)s2)o1 | 102.3 ± 0.73 | 107.6 ± 0.94 | 102 ± 3.9 | 51.1 ± 3.1 | 15.7 ± 0.57 | 8.84 ± 0.46 | 99.3 ± 1.4 | 96.57 ± 0.27 | 96.563 ± 0.042 | 49.5 ± 4.3 | 21.27 ± 0.21 | 16.3 ± 1.4 | 1.06 | 1.14 | 1.02 | 1.07 | 0.654 | 0.112 | 0.00431 | 0.00292 | 0.00164 | 1.14 | 1.05 | 1.1 | 1.12 | 1.07 | 0.771 | 0.00698 | 0.00188 | 0.00107
13 | Cc1cnc(NC(=O)Nc2cc(Br)c(C)cc2OC[C@@H]2CNCCO2)cn1 | 72.1 ± 3.7 | 87.9 ± 6.2 | 95 ± 2.5 | 75.8 ± 2.3 | 29.1 ± 0.86 | 26.8 ± 0.86 | 109.5 ± 0.45 | 103.7 ± 0.67 | 102.8 ± 0.59 | 109 ± 4.1 | 84.09 ± 0.55 | 33.7 ± 0.83 | 0.474 | 0.234 | 0.185 | 0.103 | 0.0749 | 0.0522 | 0.0206 | 0.0139 | 0.0111 | 0.911 | 0.655 | 0.375 | 0.158 | 0.27 | 0.00749 | 0.0015 | 0.00258 | 0.00665
14 | Cn1cc(CNCC2CCN(c3ncc(C(=O)NO)cn3)CC2)c2ccccc21 | 95.9 ± 2.5 | 86.5 ± 1.7 | 59.3 ± 0.89 | 36.84 ± 0.15 | 25.2 ± 0.97 | 18.08 ± 0.036 | 91.4 ± 0.56 | 78.47 ± 0.52 | 44.98 ± 0.16 | 3.52 ± 0.045 | 2.06 ± 0.065 | 1.27 ± 0.15 | 1.02 | 0.835 | 0.708 | 0.585 | 0.288 | 0.0238 | 0.00256 | 0.000673 | 0.000759 | 1.08 | 0.949 | 0.9 | 0.687 | 0.00555 | 0.00221 | 0.0013 | 0.000408 | 0.000355
